According to the supplement of paper PMC10307832:

compound: CC1=C(C(=NN1)C)CC2=C(C3=C(S2)N(C(=O)N(C3=O)C)CC(C)C)C(=O)N4C[C@@H](CO4)O + Nc1ncn([C@H]2C[C@H](O)[C@@H](CO)O2)c(=O)n1 [Decitabine] (partner 2 µM); assay: relative viability (nuclei count vs DMSO), 5 days (fraction); higher = more cells survive; settings: first compound 0.0025 µM
How it was run: (§1)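 Relative viability is defined as nuclei in treated wells over nuclei in vehicle wells. Duplicate plates were run and medians reported. Lung cancer cell lines in 1536-well plates were dosed by pin tool one day after seeding, with one drug or with a fixed anchor-drug dose plus five library-drug doses (not always all listed) in √10 steps, and nuclei were counted after 5 days.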

Cell Line	relative viability
NCI-H522	0.658
NCI-H727	0.807
NCI-H1650	0.365
NCI-H1993	0.59
SW 1573	0.529
NCI-H838	0.447
LCLC-103H	0.753
NCI-H520	0.476
NCI-H2126	0.575
EMC-BAC-2	1.03
NCI-H2085	0.526
HCC-366	0.297
NCI-H1666	0.631
NCI-H596	1.11
LK-2	0.261
NCI-H2087	0.315
NCI-H2342	0.74
SK-MES-1	0.428
NCI-H2170	0.495
A549	0.237
SW 900	0.449
NCI-H1648	0.582
NCI-H1395	0.801
NCI-H1793	0.295
NCI-H1944	0.452
ABC-1	0.988
NCI-H358	0.198

same assay, conditions: first compound 0.007906 µM

Cell Line	relative viability
NCI-H522	0.655
NCI-H727	0.915
NCI-H1650	0.424
NCI-H1993	0.523
SW 1573	0.519
NCI-H838	0.489
LCLC-103H	0.746
NCI-H520	0.448
NCI-H2126	0.561
EMC-BAC-2	1.01
NCI-H2085	0.543
HCC-366	0.417
NCI-H1666	0.831
NCI-H596	1.1
LK-2	0.397
NCI-H2087	0.28
NCI-H2342	0.784
SK-MES-1	0.384
NCI-H2170	0.514
A549	0.284
SW 900	0.405
NCI-H1648	0.529
NCI-H1395	0.68
NCI-H1793	0.517
NCI-H1944	0.46
ABC-1	0.899
NCI-H358	0.237

same assay, conditions: first compound 0.025 µM

Cell Line	relative viability
NCI-H522	0.472
NCI-H727	0.862
NCI-H1650	0.388
NCI-H1993	0.607
SW 1573	0.634
NCI-H838	0.43
LCLC-103H	0.766
NCI-H520	0.45
NCI-H2126	0.564
EMC-BAC-2	1.03
NCI-H2085	0.536
HCC-366	0.399
NCI-H1666	0.74
NCI-H596	1.1
LK-2	0.268
NCI-H2087	0.274
NCI-H2342	0.81
SK-MES-1	0.394
NCI-H2170	0.462
A549	0.252
SW 900	0.547
NCI-H1648	0.5
NCI-H1395	0.707
NCI-H1793	0.471
NCI-H1944	0.462
NCI-H358	0.208

same assay, conditions: first compound 0.07906 µM

Cell Line	relative viability
NCI-H522	0.498
NCI-H727	0.943
NCI-H1650	0.292
NCI-H1993	0.595
SW 1573	0.534
NCI-H838	0.455
LCLC-103H	0.644
NCI-H520	0.423
NCI-H2126	0.512
EMC-BAC-2	1.03
NCI-H2085	0.473
HCC-366	0.365
NCI-H1666	0.666
NCI-H596	0.989
LK-2	0.237
NCI-H2087	0.295
NCI-H2342	0.693
SK-MES-1	0.381
NCI-H2170	0.441
A549	0.232
SW 900	0.469
NCI-H1648	0.302
NCI-H1395	0.763
NCI-H1793	0.449
NCI-H1944	0.404
ABC-1	0.889
NCI-H358	0.204

same assay, conditions: first compound 0.25 µM

Cell Line	relative viability
NCI-H522	0.599
NCI-H727	0.969
NCI-H1650	0.309
NCI-H1993	0.536
SW 1573	0.504
NCI-H838	0.444
LCLC-103H	0.701
NCI-H520	0.371
NCI-H2126	0.603
EMC-BAC-2	1.03
NCI-H2085	0.661
HCC-366	0.372
NCI-H1666	0.658
NCI-H596	1.06
LK-2	0.273
NCI-H2087	0.248
NCI-H2342	0.799
SK-MES-1	0.449
NCI-H2170	0.481
A549	0.343
SW 900	0.412
NCI-H1648	0.461
NCI-H1395	0.694
NCI-H1793	0.524
NCI-H1944	0.448
ABC-1	0.779
NCI-H358	0.217

compound: CC1=C(C(=NN1)C)CC2=C(C3=C(S2)N(C(=O)N(C3=O)C)CC(C)C)C(=O)N4C[C@@H](CO4)O + CC(=O)Nc1cccc(-n2c(=O)n(C3CC3)c(=O)c3c(Nc4ccc(I)cc4F)n(C)c(=O)c(C)c32)c1 [Trametinib] (partner 0.02 µM); assay: as above; settings: first compound 0.0025 µM
How it was run: as §1

Cell Line	relative viability
NCI-H522	0.77
NCI-H727	0.348
NCI-H1650	0.626
NCI-H1993	0.627
SW 1573	0.496
NCI-H838	0.498
LCLC-103H	0.681
NCI-H520	0.671
NCI-H2126	0.527
EMC-BAC-2	0.902
NCI-H2085	0.844
HCC-366	0.367
NCI-H1666	0.876
NCI-H596	0.789
LK-2	0.703
NCI-H2087	0.248
NCI-H2342	0.932
SK-MES-1	0.562
NCI-H2170	0.909
SW 900	0.666
NCI-H1648	0.593
NCI-H1395	1.07
CAL-12T	0.402
NCI-H2228	0.788
NCI-H1793	0.378
NCI-H1944	0.422
NCI-H358	0.146

same assay, conditions: first compound 0.007906 µM

Cell Line	relative viability
NCI-H522	0.768
NCI-H727	0.374
NCI-H1650	0.687
NCI-H1993	0.0091
SW 1573	0.574
NCI-H838	0.569
LCLC-103H	0.689
NCI-H520	0.824
NCI-H2126	0.57
EMC-BAC-2	0.904
NCI-H2085	0.586
HCC-366	0.501
NCI-H1666	0.824
NCI-H596	0.871
LK-2	0.952
NCI-H2087	0.202
NCI-H2342	0.751
SK-MES-1	0.607
NCI-H2170	0.966
SW 900	0.951
NCI-H1648	0.431
NCI-H1395	0.988
CAL-12T	0.464
NCI-H2228	0.584
NCI-H1793	0.435
NCI-H1944	0.438
NCI-H358	0.125

same assay, conditions: first compound 0.025 µM

Cell Line	relative viability
NCI-H522	0.701
NCI-H727	0.442
NCI-H1650	0.759
NCI-H1993	0.553
SW 1573	0.622
NCI-H838	0.393
LCLC-103H	0.664
NCI-H520	0.455
NCI-H2126	0.548
EMC-BAC-2	0.938
NCI-H2085	0.575
HCC-366	0.376
NCI-H1666	0.885
NCI-H596	0.878
LK-2	0.651
NCI-H2087	0.213
NCI-H2342	0.724
SK-MES-1	0.604
NCI-H2170	0.956
SW 900	0.787
NCI-H1648	0.635
NCI-H1395	0.994
CAL-12T	0.372
NCI-H2228	0.578
NCI-H1793	0.392
NCI-H1944	0.478
NCI-H358	0.146

same assay, conditions: first compound 0.07906 µM

Cell Line	relative viability
NCI-H522	0.606
NCI-H727	0.379
NCI-H1650	0.62
NCI-H1993	0.641
SW 1573	0.59
NCI-H838	0.452
LCLC-103H	0.688
NCI-H520	0.457
NCI-H2126	0.551
EMC-BAC-2	0.892
NCI-H2085	0.608
HCC-366	0.455
NCI-H1666	0.786
NCI-H596	0.76
LK-2	0.613
NCI-H2087	0.201
NCI-H2342	0.854
SK-MES-1	0.591
NCI-H2170	0.756
SW 900	0.74
NCI-H1648	0.356
NCI-H1395	1.04
CAL-12T	0.379
NCI-H2228	0.662
NCI-H1793	0.455
NCI-H1944	0.396
NCI-H358	0.125

same assay, conditions: first compound 0.25 µM

Cell Line	relative viability
NCI-H522	0.657
NCI-H727	0.34
NCI-H1650	0.788
NCI-H1993	0.522
SW 1573	0.654
NCI-H838	0.505
LCLC-103H	0.661
NCI-H520	0.463
NCI-H2126	0.577
EMC-BAC-2	0.986
NCI-H2085	0.549
HCC-366	0.324
NCI-H1666	0.891
NCI-H596	0.886
LK-2	0.61
NCI-H2087	0.208
NCI-H2342	0.976
SK-MES-1	0.592
NCI-H2170	0.94
SW 900	0.8
NCI-H1648	0.52
NCI-H1395	1
